For one molecule, EC50 results are on record in patent US20250281498A1, “FUSED AMINO PYRIMIDINE COMPOUNDS FOR TREATMENT OF SYNUCLEINOPATHIES AND TDP-43 PROTEINOPATHIES” (Ovid Therapeutics Inc., priority 2024, published 2025).

This assay has as its target T1, KCC4 (Homo sapiens, UniProt Q9Y666).
T1 construct: expressed in transfected cells; host or cells: HEK-293
T1 sequence (Q9Y666 1-1083): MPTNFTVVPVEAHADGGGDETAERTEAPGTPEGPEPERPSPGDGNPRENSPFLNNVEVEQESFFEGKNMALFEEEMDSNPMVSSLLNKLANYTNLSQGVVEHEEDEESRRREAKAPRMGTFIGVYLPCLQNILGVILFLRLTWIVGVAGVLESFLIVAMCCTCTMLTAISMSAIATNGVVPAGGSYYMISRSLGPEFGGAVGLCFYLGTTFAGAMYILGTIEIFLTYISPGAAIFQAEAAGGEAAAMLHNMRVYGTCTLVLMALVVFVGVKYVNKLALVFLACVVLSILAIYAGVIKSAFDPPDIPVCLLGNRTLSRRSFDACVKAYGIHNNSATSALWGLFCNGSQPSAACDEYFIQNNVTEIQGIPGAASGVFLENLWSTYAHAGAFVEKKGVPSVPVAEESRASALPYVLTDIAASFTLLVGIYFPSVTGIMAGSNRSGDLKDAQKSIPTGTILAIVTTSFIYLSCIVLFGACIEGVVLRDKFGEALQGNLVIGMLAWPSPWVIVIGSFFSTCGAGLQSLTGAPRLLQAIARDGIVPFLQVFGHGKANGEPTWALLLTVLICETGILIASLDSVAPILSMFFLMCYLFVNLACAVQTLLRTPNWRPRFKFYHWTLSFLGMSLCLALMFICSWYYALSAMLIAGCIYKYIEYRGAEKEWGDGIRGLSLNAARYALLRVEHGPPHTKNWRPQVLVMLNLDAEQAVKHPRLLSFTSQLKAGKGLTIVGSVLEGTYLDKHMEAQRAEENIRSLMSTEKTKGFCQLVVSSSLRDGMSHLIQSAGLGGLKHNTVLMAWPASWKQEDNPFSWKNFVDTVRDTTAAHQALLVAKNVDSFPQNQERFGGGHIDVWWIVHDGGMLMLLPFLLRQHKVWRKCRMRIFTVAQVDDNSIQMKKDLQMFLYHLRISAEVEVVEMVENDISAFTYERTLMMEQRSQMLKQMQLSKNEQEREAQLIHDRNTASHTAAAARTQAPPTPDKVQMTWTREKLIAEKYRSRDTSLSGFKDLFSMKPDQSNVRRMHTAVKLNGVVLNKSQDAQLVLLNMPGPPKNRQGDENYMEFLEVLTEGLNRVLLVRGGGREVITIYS
The assay can be described thus: TI+ flux assay, HEK-293 cells expressing KCC4. It counts as cell-based. To be noted: read-out: concentration at which effects on KCC4 were seen (EC50 chart FIG. 1G). The method, then: FLIPR TI Flux assay. HEK-293 cells were washed with HBSS, and then incubated with loading buffer containing TI sensitive fluorescent dye (https://www.moleculardevices.com), 20 μM bumetanide 20 μM ouabain and 2.5 mM probenecid for 1 h at room temperature (RT) under control conditions or with drugs in the dark using a FlexStation 3 microplate reader (Molecular Devices) and imaged […] for 30 min. Stimulus buffer was added containing 5 mM K^+/0.5 mM Tl^+ and cells were imaged every 1.5 over a 190 second time course The initial rate Tl^+ uptake (Relative Fluorescence Units (RFU) per second) was determined following addition of the stimulus buffer as outlined previously (Conway et al., 2017, supra) (Lee et al., 2022, supra).
Several studies have shown that the activity and plasma membrane accumulation of KCC2 is potentiated via phosphorylation of S940, a process mediated by the activity of protein kinase C and protein phosphatase 1 (Lee et al., 2011, supra; Lee et al., J Biol Chem 282, 29777-29784 (2007); Moore et al., Proc. Natl. Acad. Sci. U.S.A. 115, 10166-10171 (2018); Moore et al., Trends Neurosci. 40, 555-571 (2017); Silayeva et al., Proc. Natl. Acad. Sci. U.S.A. 112, 3523-3528 (2015)). […] Compared to KCC2, effects on KCC3, KCC4, and NKCC1 were only seen at concentrations more than 35-fold that of KCC2 (>100 μM) (FIG. 1G).

pEC50: −log10 of the molar value.

For the molecule `C[C@@H]1CN(c2nc3c(c(Nc4ccc(C5CCCCC5)cc4)n2)COC3)CCO1` [Compound A, (R)—N-(4-cyclohexylphenyl)-2-(2-methylmorpholino)-5,7-dihydrofuro[3,4-d]pyrimidin-4-amine], the pEC50 is below 4.00.
